Laboratory results taken from patent US7772241B2, “Variolin derivatives and their use as antitumor agents” (Pharma Mar S.A., priority 2001, dated 2010).

How the values were obtained:
[1] = tested on: K-562; assay: Inhibition of cells growth by colorimetric (SRB) assay, K-562; settings: for GI50 / CC50: Homo sapiens, K562, 48 h; for GI50: read-out: GI50 K-562, SRB assay, 48 hours exposure; for CC50: read-out: LC50 K-562, SRB assay, 48 hours exposure; for TGI K-562: SRB assay, 48 hours exposure
How it was run: (§1)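 Human tumour cells in RPMI 1640 with 10% FBS were seeded at 5×10^3 cells/well, allowed to attach for 18 h, then exposed to samples at 10 to 10^−8 μg/ml for 48 h. Growth was measured by SRB staining after TCA fixation, with absorbance read at 490 nm in triplicate wells.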

[2] = tested on: LoVo; assay: Inhibition of cells growth by colorimetric (SRB) assay, LoVo; settings: for GI50 / CC50: Homo sapiens, LoVo, 48 h; for GI50: read-out: GI50 LOVO, SRB assay, 48 hours exposure; for CC50: read-out: LC50 LOVO, SRB assay, 48 hours exposure; for TGI LOVO: SRB assay, 48 hours exposure
How it was run: as §1

[3] = tested on: SK-OV-3; assay: Inhibition of cells growth by colorimetric (SRB) assay, SK-OV-3; settings: for GI50 / CC50: Homo sapiens, SK-OV-3, 48 h; for GI50: read-out: GI50 SKOV-3, SRB assay, 48 hours exposure; for CC50: read-out: LC50 SKOV-3, SRB assay, 48 hours exposure; for TGI SKOV-3: SRB assay, 48 hours exposure
How it was run: as §1

[4] = tested on: A-549; assay: Inhibition of cells growth by colorimetric (SRB) assay, A-549; settings: for GI50 / CC50: Homo sapiens, A549, 48 h; for GI50: read-out: GI50 A-549, SRB assay, 48 hours exposure; for CC50: read-out: LC50 A-549, SRB assay, 48 hours exposure; for TGI A-549: SRB assay, 48 hours exposure
How it was run: as §1

[5] = tested on: HMEC1; assay: Inhibition of cells growth by colorimetric (SRB) assay, HMEC1; settings: for GI50: Homo sapiens, HMEC-1, 48 h, read-out: GI50 H-MEC-1, SRB assay, 48 hours exposure; for TGI H-MEC-1: SRB assay, 48 hours exposure, in M (unit assumed)
[6] = as above; settings: human, HMEC1 cells, LC50 H-MEC-1, SRB assay, 48 hours exposure
[7] = tested on: SK-MEL-28; assay: Inhibition of cells growth by colorimetric (SRB) assay, SK-MEL-28; settings: for GI50 / CC50: Homo sapiens, SK-MEL-28, 48 h; for GI50: read-out: GI50 MEL-28, SRB assay, 48 hours exposure; for CC50: read-out: LC50 MEL-28, SRB assay, 48 hours exposure; for TGI MEL-28: SRB assay, 48 hours exposure
How it was run: as §1

[8] = tested on: IGROV-1; assay: Inhibition of cells growth by colorimetric (SRB) assay, IGROV-1; settings: for GI50 / CC50: Homo sapiens, IGROV-1, 48 h; for GI50: read-out: GI50 IGROV, SRB assay, 48 hours exposure; for CC50: read-out: LC50 IGROV, SRB assay, 48 hours exposure; for TGI IGROV: SRB assay, 48 hours exposure
How it was run: as §1

[9] = tested on: IGROV-ET; assay: Inhibition of cells growth by colorimetric (SRB) assay, IGROV-ET; settings: for GI50 / CC50: Homo sapiens, 48 h; for GI50: read-out: GI50 IGROV-ET, SRB assay, 48 hours exposure; for CC50: read-out: LC50 IGROV-ET, SRB assay, 48 hours exposure; for TGI IGROV-ET: SRB assay, 48 hours exposure
How it was run: as §1

[10] = tested on: LoVo-Dox; assay: Inhibition of cells growth by colorimetric (SRB) assay, LoVo-Dox; settings: for GI50 / CC50: Homo sapiens, 48 h; for GI50: read-out: GI50 LOVO-DOX, SRB assay, 48 hours exposure; for CC50: read-out: LC50 LOVO-DOX, SRB assay, 48 hours exposure; for TGI LOVO-DOX: SRB assay, 48 hours exposure
How it was run: as §1

[11] = tested on: LNCaP; assay: Inhibition of cells growth by colorimetric (SRB) assay, LNCaP; settings: for GI50 / CC50: Homo sapiens, LNCaP, 48 h; for GI50: read-out: GI50 LN-caP, SRB assay, 48 hours exposure; for CC50: read-out: LC50 LN-caP, SRB assay, 48 hours exposure; for TGI LN-caP: SRB assay, 48 hours exposure
How it was run: as §1

[12] = tested on: DU-145; assay: Inhibition of cells growth by colorimetric (SRB) assay, DU-145; settings: for GI50 / CC50: Homo sapiens, DU-145, 48 h; for GI50: read-out: GI50 DU-145, SRB assay, 48 hours exposure; for CC50: read-out: LC50 DU-145, SRB assay, 48 hours exposure; for TGI DU-145: SRB assay, 48 hours exposure
How it was run: as §1

[13] = tested on: HT-29; assay: Inhibition of cells growth by colorimetric (SRB) assay, HT-29; settings: for GI50 / CC50: Homo sapiens, HT-29, 48 h; for GI50: read-out: GI50 HT-29, SRB assay, 48 hours exposure; for CC50: read-out: LC50 HT-29, SRB assay, 48 hours exposure; for TGI HT-29: SRB assay, 48 hours exposure
How it was run: as §1

[14] = tested on: SK-BR-3; assay: Inhibition of cells growth by colorimetric (SRB) assay, SK-BR-3; settings: for GI50 / CC50: Homo sapiens, SK-BR-3, 48 h; for GI50: read-out: GI50 SK-BR-3, SRB assay, 48 hours exposure; for CC50: read-out: LC50 SK-BR-3, SRB assay, 48 hours exposure; for TGI SK-BR-3: SRB assay, 48 hours exposure
How it was run: as §1

[15] = tested on: PANC-1; assay: Inhibition of cells growth by colorimetric (SRB) assay, PANC-1; settings: for GI50 / CC50: Homo sapiens, PANC-1, 48 h; for GI50: read-out: GI50 PANC-1, SRB assay, 48 hours exposure; for CC50: read-out: LC50 PANC-1, SRB assay, 48 hours exposure; for TGI PANC-1: SRB assay, 48 hours exposure
How it was run: as §1

Structure (SMILES): COc1ccc2nc3c(cc2c1)c(-c1ccnc(SC)n1)c1ccnc(N)n13 [Compound 18b]
- GI50 [1]: ≥ 25.7 µM
- CC50 [1]: ≥ 25.7 µM
- TGI K-562 [1]: 2.57E−05
- GI50 [2]: ≥ 25.7 µM
- CC50 [2]: ≥ 25.7 µM
- TGI LOVO [2]: 2.57E−05
- GI50 [3]: ≥ 25.7 µM
- CC50 [3]: ≥ 25.7 µM
- TGI SKOV-3 [3]: 2.57E−05
- GI50 [4]: ≥ 25.7 µM
- CC50 [4]: ≥ 25.7 µM
- TGI A-549 [4]: 2.57E−05
- GI50 [5]: 12.2 µM
- TGI H-MEC-1 [5]: 1.69E−05
- CC50 at 48 h [6]: 23.3 µM
- GI50 [7]: ≥ 25.7 µM
- CC50 [7]: ≥ 25.7 µM
- TGI MEL-28 [7]: 2.57E−05
- GI50 [8]: 20.8 µM
- CC50 [8]: ≥ 25.7 µM
- TGI IGROV [8]: 2.57E−05
- GI50 [9]: ≥ 25.7 µM
- CC50 [9]: ≥ 25.7 µM
- TGI IGROV-ET [9]: 2.57E−05
- GI50 [10]: ≥ 25.7 µM
- CC50 [10]: ≥ 25.7 µM
- TGI LOVO-DOX [10]: 2.57E−05
- GI50 [11]: 16.6 µM
- CC50 [11]: ≥ 25.7 µM
- TGI LN-caP [11]: 2.57E−05
- GI50 [12]: ≥ 25.7 µM
- CC50 [12]: ≥ 25.7 µM
- TGI DU-145 [12]: 2.57E−05
- GI50 [13]: ≥ 25.7 µM
- CC50 [13]: ≥ 25.7 µM
- TGI HT-29 [13]: 2.57E−05
- GI50 [14]: ≥ 25.7 µM
- CC50 [14]: ≥ 25.7 µM
- TGI SK-BR-3 [14]: 2.57E−05
- GI50 [15]: 10.3 µM
- CC50 [15]: ≥ 25.7 µM
- TGI PANC-1 [15]: 2.57E−05

Structure (SMILES): Nc1nccc(-c2c3cc(Cl)cnc3n3c(N)nccc23)n1 [Compound 49]
- GI50 [1]: 13.9 µM
- CC50 [1]: 32.1 µM
- TGI K-562 [1]: 2.77E−05
- GI50 [2]: 2.37 µM
- CC50 [2]: 32.1 µM
- TGI LOVO [2]: 1.16E−05
- GI50 [3]: 5.42 µM
- CC50 [3]: 32.1 µM
- TGI SKOV-3 [3]: 1.50E−05
- GI50 [4]: 2.11 µM
- CC50 [4]: 32.1 µM
- TGI A-549 [4]: 9.21E−06
- GI50 [5]: 0.456 µM
- TGI H-MEC-1 [5]: 4.59E−06
- CC50 at 48 h [6]: 8.73 µM
- GI50 [7]: 6.35 µM
- CC50 [7]: 32.1 µM
- TGI MEL-28 [7]: 1.43E−05
- GI50 [8]: 4.68 µM
- CC50 [8]: 29.3 µM
- TGI IGROV [8]: 1.17E−05
- GI50 [9]: 4.23 µM
- CC50 [9]: 32.1 µM
- TGI IGROV-ET [9]: 1.20E−05
- GI50 [10]: 2.11 µM
- CC50 [10]: 27.6 µM
- TGI LOVO-DOX [10]: 7.86E−06
- GI50 [11]: 1.26 µM
- CC50 [11]: 19.5 µM
- TGI LN-caP [11]: 4.30E−06
- GI50 [12]: 5.33 µM
- CC50 [12]: 32.1 µM
- TGI DU-145 [12]: 1.38E−05
- GI50 [13]: 12 µM
- CC50 [13]: 32.1 µM
- TGI HT-29 [13]: 3.21E−05
- GI50 [14]: 7.19 µM
- CC50 [14]: 32.1 µM
- TGI SK-BR-3 [14]: 1.86E−05
- GI50 [15]: 10.7 µM
- CC50 [15]: 32.1 µM
- TGI PANC-1 [15]: 3.21E−05

Structure (SMILES): Nc1nccc(-c2c3cc(F)c(Cl)nc3n3c(N)nccc23)n1 [Compound 50]
- GI50 [1]: ≥ 30.3 µM
- CC50 [1]: ≥ 30.3 µM
- TGI K-562 [1]: 3.03E−05
- GI50 [2]: 12 µM
- CC50 [2]: ≥ 30.3 µM
- TGI LOVO [2]: 3.03E−05
- GI50 [3]: 15.8 µM
- CC50 [3]: ≥ 30.3 µM
- TGI SKOV-3 [3]: 3.03E−05
- GI50 [4]: 5.25 µM
- CC50 [4]: ≥ 30.3 µM
- TGI A-549 [4]: 3.03E−05
- GI50 [5]: 8.01 µM
- TGI H-MEC-1 [5]: 2.44E−05
- CC50 at 48 h [6]: ≥ 30.3 µM
- GI50 [7]: ≥ 30.3 µM
- CC50 [7]: ≥ 30.3 µM
- TGI MEL-28 [7]: 3.03E−05
- GI50 [8]: 20.3 µM
- CC50 [8]: ≥ 30.3 µM
- TGI IGROV [8]: 3.03E−05
- GI50 [9]: 12.9 µM
- CC50 [9]: ≥ 30.3 µM
- TGI IGROV-ET [9]: 3.03E−05
- GI50 [10]: 12.6 µM
- CC50 [10]: ≥ 30.3 µM
- TGI LOVO-DOX [10]: 3.03E−05
- GI50 [11]: 0.886 µM
- CC50 [11]: ≥ 30.3 µM
- TGI LN-caP [11]: 1.88E−06
- GI50 [12]: 16.5 µM
- CC50 [12]: ≥ 30.3 µM
- TGI DU-145 [12]: 3.03E−05
- GI50 [13]: ≥ 30.3 µM
- CC50 [13]: ≥ 30.3 µM
- TGI HT-29 [13]: 3.03E−05
- GI50 [14]: 11.6 µM
- CC50 [14]: ≥ 30.3 µM
- TGI SK-BR-3 [14]: 3.03E−05
- GI50 [15]: ≥ 30.3 µM
- CC50 [15]: ≥ 30.3 µM
- TGI PANC-1 [15]: 3.03E−05
